From patent publication US12404242B2, “Compositions and methods for making and using small molecules in the treatment of cancer” (Reglagene, Inc., priority 2021, dated 2025)
≈ marks a conversion by molar mass, not a printed value.

Columns and labels:
[1] = Kinetic solubility in aqueous PBS buffer (HPLC-MS); type: physicochemical; conditions: kinetic from dmso stock, DMSO stock mixed with aqueous PBS buffer, filtered, read-out: Kinetic Solubility
Procedure: In another exemplary method, central nervous system multiparameter optimization (CNS MPO) score and kinetic solubility of selected compounds was determined. CNS MPO score for compounds and their isomers disclosed herein were calculated using an algorithm that uses a weighted scoring function assessing 6 key physicochemical properties (clogP, clogD, MW, TPSA, HBD, and pKa) for blood-brain-barrier (BBB penetration). CNS MPO score ranged from 0 and 6.0 with scores≥4.0 used as a cut-off to select compounds that can have a high probability of accumulating in the CNS. Kinetic solubility of a compound is the maximum solubility of the fastest precipitating species of the compound. Kinetic solubility was determined by preparing a concentrated stock solution for compounds and their isomers disclosed herein in an organic solvent (DMSO), after which the solution was mixed with an aqueous PBS buffer and then filtered. Filtrate was tested to quantify the kinetic solubilty using HPLC-MS calibration curve. The CNS MPO Score and kinetic solubility of the compounds tested are provided in Table 7 where “ND” means not determined.

U87 cells = assay: Cell viability (AlamarBlue), U87 glioblastoma cells; type: cell-based, human; design: key to EC50 (μM) in U87 cells: Inactive: less than 50% inhibition at the highest concentration tested at 50 μM; conditions: 72 hours of treatment; for EC50: Homo sapiens, U-87 MG, 72 h
Procedure: (§1) In another exemplary method, half maximal effective concentration (EC50) was determined for some compounds and their isomers as disclosed herein in a variety of human cancer cell lines. In brief, cells from two prostate cancer cell lines (LNCaP, 22RV1), one glioblastoma cell line (U87), one breast cancer cell line (MCF7), a glioma cell line (LN18), a normal prostate cell line (RWPE1), and a glioblastoma cell line (T98G) were plated in a multi-well plate. After 24 hours, one of the compounds herein was added to the well at increasing concentrations. After 72 hours of treatment, cell viability was assessed using AlamrBlue® (Invitrogen) and fluorescence was read using the CLARIOstar Plus Multilabel Plate Reader (BMG Labtech). Samples were normalized to no treatment controls. EC50 values were determined using GraphPad Prism.

LNCaP cells = assay: Cell viability (AlamarBlue), LNCaP prostate cancer cells; type: cell-based, human; design: key to EC50 (μM) in LNCaP cells: Inactive: less than 50% inhibition at the highest concentration tested at 50 μM; conditions: 72 hours of treatment; for EC50: Homo sapiens, LNCaP, 72 h
Procedure: as §1

22RV1 cells = assay: Cell viability (AlamarBlue), 22RV1 prostate cancer cells; type: cell-based, human; design: key to EC50 (μM) in 22RV1 cells: Inactive: less than 50% inhibition at the highest concentration tested at 50 μM; conditions: 72 hours of treatment; for EC50: Homo sapiens, 22Rv1, 72 h
Procedure: as §1

SMILES | solubility kinetic [1] | EC50 (μM) in U87 cells (U87 cells) | EC50 (μM) in LNCaP cells (LNCaP cells) | EC50 (μM) in 22RV1 cells (22RV1 cells) | EC50 (U87 cells) | EC50 (22RV1 cells) | EC50 (LNCaP cells)
COC1CCC(C(=O)NC(=O)Nc2ccc(Oc3ccc(C#N)cn3)c(C)c2)CC1 (stereo not shown) [Compound 6, 3-{4-[(5-cyanopyridin-2-yl)oxy]-3-methylphenyl}-1-(4-methoxycyclohexanecarbonyl)urea] | 0.53 µM (≈ 0.216 µg/mL) | – | – | – | – | – | –
COC1CC(C(=O)NC(=O)Nc2ccc(Oc3ccc(F)cn3)c(C)c2)C1 (stereo not shown) [Compound 15, N-((4-((5-fluoropyridin-2-yl)oxy)-3-methylphenyl)carbamoyl)-3-methoxycyclobutane-1-carboxamide] | 14.7 µM (≈ 5.48 µg/mL) | – | – | – | – | – | –
COC1CC(C(=O)NC(=O)Nc2ccc(Oc3ccc(C#N)cn3)c(C)c2)C1 (stereo not shown) [Compound 16, N-((4-((5-cyanopyridin-2-yl)oxy)-3-methylphenyl)carbamoyl)-3-methoxycyclobutane-1-carboxamide] | 11.6 µM (≈ 4.41 µg/mL) | – | – | – | – | – | –
COC1CC(C(=O)NC(=O)Nc2ccc(Oc3ncc(Cl)cn3)c(C)c2)C1 (stereo not shown) [Compound 20, N-((4-((5-chloropyrimidin-2-yl)oxy)-3-methylphenyl)carbamoyl)-3-methoxycyclobutane-1-carboxamide] | 7.1 µM (≈ 2.77 µg/mL) | – | – | – | – | – | –
Cc1cc(NC(=O)NC(=O)C2CCC(OCC3CC3)CC2)ccc1Oc1ncc(Cl)cn1 (stereo not shown) [Compound 38, N-((4-((5-chloropyrimidin-2-yl)oxy)-3-methylphenyl)carbamoyl)-4-(cyclopropylmethoxy)cyclohexane-1-carboxamide] | – | Inactive | Inactive | Inactive | – | – | –
Cc1cc(NC(=O)NC(=O)C2CC(OCC3CC3)C2)ccc1Oc1nccs1 (stereo not shown) [Compound 39, 3-(cyclopropylmethoxy)-N-((3-methyl-4-(thiazol-2-yloxy)phenyl)carbamoyl)cyclobutane-1-carboxamide] | – | Inactive | Inactive | Inactive | – | – | –
Cc1cc(NC(=O)NC(=O)C2CC(OCC3CC3)C2)ccc1Oc1ccc(Cl)cn1 (stereo not shown) [Compound 40, N-((4-((5-chloropyridin-2-yl)oxy)-3-methylphenyl)carbamoyl)-3-(cyclopropylmethoxy)cyclobutane-1-carboxamide] | – | Inactive | Inactive | Inactive | – | – | –
Cc1cc(NC(=O)NC(=O)C2CC(OCC3CC3)C2)ccc1Oc1ncc(Cl)cn1 (stereo not shown) [Compound 41, N-((4-((5-chloropyrimidin-2-yl)oxy)-3-methylphenyl)carbamoyl)-3-(cyclopropylmethoxy)cyclobutane-1-carboxamide] | – | – | Inactive | – | 49 µM | 46 µM | –
COC1CCC(C(=O)NC(=O)Nc2ccc(Oc3cncnc3)c(C)c2)CC1 (stereo not shown) [Compound 42, 4-methoxy-N-((3-methyl-4-(pyrimidin-5-yloxy)phenyl)carbamoyl)cyclohexane-1-carboxamide] | – | – | – | – | 41.5 µM | 37 µM | 19.8 µM
COC1CC(C(=O)NC(=O)Nc2ccc(Oc3cncnc3)c(C)c2)C1 (stereo not shown) [Compound 43, 3-methoxy-N-((3-methyl-4-(pyrimidin-5-yloxy)phenyl)carbamoyl)cyclobutane-1-carboxamide] | – | – | – | – | 34 µM | 39 µM | 21.8 µM
COC1CC(C(=O)NC(=O)Nc2ccc(Oc3nccs3)c(C)c2)C1 (stereo not shown) [Compound 45, 3-methoxy-N-((3-methyl-4-(thiazol-2-yloxy)phenyl)carbamoyl)cyclobutane-1-carboxamide] | 58.4 µM (≈ 21.1 µg/mL) | – | – | – | – | – | –
COCCOC1CCC(C(=O)NC(=O)Nc2ccc(Oc3ncc(Cl)cn3)c(C)c2)CC1 (stereo not shown) [Compound 50, N-((4-((5-chloropyrimidin-2-yl)oxy)-3-methylphenyl)carbamoyl)-4-(2-methoxyethoxy)cyclohexanecarboxamide] | – | Inactive | Inactive | Inactive | – | – | –
COC1CCC(C(=O)NC(=O)Nc2ccc(Oc3cnc(N4CC5(COC5)C4)nc3)c(C)c2)CC1 (stereo not shown) [Compound 51, N-((4-((2-(2-oxa-6-azaspiro[3.3]heptan-6-yl)pyrimidin-5-yl)oxy)-3-methylphenyl)carbamoyl)-4-methoxycyclohexanecarboxamide] | – | – | – | – | 29 µM | 20 µM | 11.1 µM
COC1CC(C(=O)NC(=O)Nc2ccc(Oc3cnc(N4CC5(COC5)C4)nc3)c(C)c2)C1 (stereo not shown) [Compound 52, -((4-((2-(2-oxa-6-azaspiro[3.3]heptan-6-yl)pyrimidin-5-yl)oxy)-3-methylphenyl)carbamoyl)-3-methoxycyclobutanecarboxamide] | – | Inactive | – | – | – | 36 µM | 25.3 µM
Cc1cc(NC(=O)NC(=O)C2CCC(O)CC2)ccc1Oc1ncc(Cl)cn1 (stereo not shown) [Compound 53, N-((4-((5-chloropyrimidin-2-yl)oxy)-3-methylphenyl)carbamoyl)-4-hydroxycyclohexane-1-carboxamide] | – | Inactive | Inactive | Inactive | – | – | –
COCCOC1CCC(C(=O)NC(=O)Nc2ccc(Oc3ncc(Cl)cn3)c(F)c2)CC1 (stereo not shown) [Compound 54, N-((4-((5-chloropyrimidin-2-yl)oxy)-3-fluorophenyl)carbamoyl)-4-(2-methoxyethoxy)cyclohexane-1-carboxamide] | – | Inactive | Inactive | Inactive | – | – | –
COC1CC(C(=O)NC(=O)Nc2ccc(Oc3nncs3)c(C)c2)C1 (stereo not shown) [Compound 55, N-((4-((1,3,4-thiadiazol-2-yl)oxy)-3-methylphenyl)carbamoyl)-3-methoxycyclobutanecarboxamide] | – | Inactive | Inactive | – | – | 30.6 µM | –
COC1CC(C(=O)NC(=O)Nc2ccc(Oc3ncc(C(F)(F)F)s3)c(C)c2)C1 (stereo not shown) [Compound 61, 3-methoxy-N-((3-methyl-4-((5-(trifluoromethyl)thiazol-2-yl)oxy)phenyl)carbamoyl)cyclobutane-1-carboxamide] | – | – | – | – | 0.35 µM | 1.6 µM | 0.93 µM
COC1CC(C(=O)NC(=O)Nc2ccc(Oc3ncc(C#N)s3)c(C)c2)C1 (stereo not shown) [Compound 62, N-((4-((5-cyanothiazol-2-yl)oxy)-3-methylphenyl)carbamoyl)-3-methoxycyclobutane-1-carboxamide] | – | – | – | – | 5.4 µM | 1 µM | 21 µM
COC1(C(=O)NC(=O)Nc2ccc(Oc3ncc(Cl)cn3)c(C)c2)CC1 [Compound 66, N-((4-((5-chloropyrimidin-2-yl)oxy)-3-methylphenyl)carbamoyl)-1-methoxycyclopropane-1-carboxamide] | – | Inactive | Inactive | Inactive | – | – | –
COC1(C(=O)NC(=O)Nc2ccc(Oc3nccs3)c(C)c2)CC1 [Compound 68, 1-methoxy-N-((3-methyl-4-(thiazol-2-yloxy)phenyl)carbamoyl)cyclopropane-1-carboxamide] | – | Inactive | Inactive | Inactive | – | – | –
COC1(C(=O)NC(=O)Nc2ccc(Oc3ncccn3)c(C)c2)CC1 [Compound 69, 1-methoxy-N-((3-methyl-4-(pyrimidin-2-yloxy)phenyl)carbamoyl)cyclopropane-1-carboxamide] | – | Inactive | Inactive | Inactive | – | – | –
COC12CC(C(=O)NC(=O)Nc3ccc(Oc4ncc(Cl)cn4)c(C)c3)(C1)C2 [Compound 85, N-((4-((5-chloropyrimidin-2-yl)oxy)-3-methylphenyl)carbamoyl)-3-methoxybicyclo[1.1.1]pentane-1-carboxamide] | 2.21 µM (≈ 0.89 µg/mL) | – | – | – | 0.06 µM | – | –
